Test results taken from patent US9636323B2, “Method of treating cancer that overexpresses TopBP1” (Baylor College of Medicine, priority 2014, dated 2017).

How the values were obtained:
MCF7 cells = assay: MTS assay, MCF7; type: cell-based, human; conditions: increasing concentrations, 5 h, versus MCF10A
Method: Then 50 μl of MTS reagent (CellTiter 96® AQueous One Solution Cell Proliferation Assay, Promega) was added to each well, covered from light and incubated for 1 h at 37.0 incubator to develop purple color. The samples were measured at 490 nm in a plate reader (BioTek Synergy HT) against a blank 48-well plate. Each assay was done in triplicate.

[1] = system: E2F sites of the p68 subunit of DNA polymerase α promoter; assay: pKL12 / pKL12-E2FAB promoter construct assay; type: cell-based; conditions: wild-type versus mutated E2F sites
[2] = system: TopBP1 checkpoint activation (Chk1); assay: HU-induced Chk1 activation; type: cell-based
Method: (§1) MDA-MB468 cells were lysed with TNN buffer (Liu et al. 2003). An aliquot of cell lysates was lysed with SDS lysis buffer and the rest of cell lysates were incubated with appropriate antibodies or beads at 4° C. for 3-12 h. Anti-FLAG beads (Sigma) were washed three times with TNN buffer. Immunoprecipitates were fractionated by SDS-PAGE and electro-transferred to Immobilon-P membrane (Millipore). Equal amount of protein loading was validated with Ponceau-S staining. The specific signals were detected by incubating with appropriate antibody. All primary antibodies were used at 1:1000 dilution and horseradish peroxidase (HRP)-conjugated secondary antibodies were used at 1:5000 dilution for immunoblotting. E2F1 (C-20 and KH-95), p53 (FL393), p63 (4A4 and H-129), p73 (H-79), p21 (C-19), Bax (N-20), GST (B-14), c-Myc (A14), Miz1 (H-190), Chk1 (G4), Actin (C-2) and GAPDH (6C5) antibodies were purchased from Santa Cruz. TopBP1 (mouse monoclonal) and Aid antibodies were purchased from BD Transduction Laboratories. TopBP1 (BL893, Rabbit polyclonal) antibody was purchased from Bethyl. Mouse monoclonal anti-phospho-γH2AX was purchased from Millipore. Phospho-Chk1 (Ser345) antibody was purchased from Cell signaling. FLAG (F7425) antibody was purchased from Sigma. Mouse monoclonal anti-p73 (IMG-246) was purchased from IMGENEX.

rats = conditions: cited from earlier work
TopBP1/E2F1 interaction [3] = biological target: T1, TopBP1/E2F1 interaction (Homo sapiens, UniProt Q92547); assay: Co-immunoprecipitation in BT549 cells, TopBP1/E2F1; type: cell-based; conditions: 2.5 μM, 3 h
T1 construct: endogenous in cells; host or cells: MDA-MB468

TopBP1/Miz1 interaction = biological target: T2, TopBP1/Miz1 interaction (Homo sapiens, UniProt Q92547); assay: Co-immunoprecipitation in BT549 cells, TopBP1/Miz1; type: cell-based; conditions: 2.5 μM, 3 h
T2 construct: expressed in transfected cells; host or cells: BT549

[4] = system: NCI-H520 lung cancer cells; assay: Caspase 3/7 activation assay, NCI-H520; type: cell-based; conditions: 2.5 or 5 μM, 16 hours
Method: (§2) The apoptosis was measured by Caspase-Glo® 3/7 assay (Promega) following the manufacturer's protocol. The cells were plated in 6-well tissue culture dish (10^4 cells/well) (BD Falcon) in respective media. […] The blank reactions were prepared per direction. Equal volume of Caspase-Glo® 3/7 reagents were applied to each well. A luminometer (Sirius) was used to quantitate luminescence.

NCI-H23 = conditions: NCI-DTP database; cited from earlier work
TopBP1/E2F1 interaction [5] = biological target: T1, TopBP1/E2F1 interaction; assay: Co-immunoprecipitation in MDA-MB468 cells, TopBP1/E2F1; type: cell-based; conditions: 2.5 μM, 5 h
Method: as §1

MDA-MB468 cells [6] = assay: Colony formation assay; type: cell-based, human; conditions: 16 h treatment, then 8 days without drug
Method: MDA-MB468 cells were plated in 6-well plates at 200 cells/well. […] Cells were grown in fresh media without drugs for additional 8 days to form colonies, when each colony contained more than 50 cells. Plates were then stained with […] crystal violet (0.5 g Crystal violet, 25 ml methanol and 75 ml H2O). Cell number was counted.

MDA-MB468 cells [7] = assay: Caspase 3/7 activity assay, MDA-MB468; type: cell-based, human
Method: as §2
To prepare TopBP1 knockdown stable cell line, MDA-MB468 cells were infected with lentivirus expressing TopBP1 shRNA (Liu et al. 2011) as well as scramble shRNA, separately. The infected cells were grown for 48 h followed by selection with puromycin (2 μg/ml). After selection, the knockdown was confirmed by Western blotting before further experiments. Two different pLKO-shTopBP1 (#1 and #2) constructs (Open Biosystems, RHS4533-NM_007027) were used to deplete TopBP1 in MDA-MB468 cells. Additional two pSuper-shTopBP1 constructs (Liu et al. 2004) were used to knock down TopBP1 in HEK293 cells. Two pSuper-shE2F1 constructs were used to deplete E2F1: shE2F1#1 (described previously (Liu et al. 2004)), and shE2F1#2 (target sequence 5′-[…]-3′). The target sequence for pSuperior-shE2F1 is the same as pSuper-shE2F1#1. To deplete p63, shp63alpha pLKO.1-puro (from Addgene, 19120) was used. TP73 MISSION shRNA (shp73 pLKO.1-puro) was purchased from Sigma (TRCN00002722587).

[8] = system: p53 transcriptional activity; assay: p53 activity reporter assay (p21 promoter dual luciferase) in H1299 cells; type: cell-based, human
Method: (§3) E2F1 activity reporter assay using a p14^ARF promoter-luciferase plasmid was performed as described (Liu et al. 2003). p53 activity reporter assay was performed by a p21^Cip promoter-luciferase plasmid (Liu et al. 2009). p73 activity reporter assay was performed using a pGL3-Bax promoter-luciferase plasmid (Liu et al. 2011). pRL-TK (Renilla luciferase, Promega) was used in all experiments for controlling transfection efficiency. The firefly and Renilla luciferase activities were measured by Dual-Luciferase Reporter System (Promega), and the firefly luciferase activities were normalized against the Renilla activity. All assays were performed in triplicate.

[9] = system: mutp53(R273H) gain of function; assay: p73 activity reporter (Bax promoter-luciferase) assay in p53-null H1299 cells expressing p73α and mutp53(R273H); type: cell-based, human
Method: as §3

SKOV-3 cells = assay: Caspase-Glo 3/7 assay, SKOV-3 transfected with mutp53(R273H); type: cell-based, human; conditions: cisplatin 20 μM with Calcein AM 5 μM, 20 h
Method: as §2

T1 sequence (Q92547 whole entry): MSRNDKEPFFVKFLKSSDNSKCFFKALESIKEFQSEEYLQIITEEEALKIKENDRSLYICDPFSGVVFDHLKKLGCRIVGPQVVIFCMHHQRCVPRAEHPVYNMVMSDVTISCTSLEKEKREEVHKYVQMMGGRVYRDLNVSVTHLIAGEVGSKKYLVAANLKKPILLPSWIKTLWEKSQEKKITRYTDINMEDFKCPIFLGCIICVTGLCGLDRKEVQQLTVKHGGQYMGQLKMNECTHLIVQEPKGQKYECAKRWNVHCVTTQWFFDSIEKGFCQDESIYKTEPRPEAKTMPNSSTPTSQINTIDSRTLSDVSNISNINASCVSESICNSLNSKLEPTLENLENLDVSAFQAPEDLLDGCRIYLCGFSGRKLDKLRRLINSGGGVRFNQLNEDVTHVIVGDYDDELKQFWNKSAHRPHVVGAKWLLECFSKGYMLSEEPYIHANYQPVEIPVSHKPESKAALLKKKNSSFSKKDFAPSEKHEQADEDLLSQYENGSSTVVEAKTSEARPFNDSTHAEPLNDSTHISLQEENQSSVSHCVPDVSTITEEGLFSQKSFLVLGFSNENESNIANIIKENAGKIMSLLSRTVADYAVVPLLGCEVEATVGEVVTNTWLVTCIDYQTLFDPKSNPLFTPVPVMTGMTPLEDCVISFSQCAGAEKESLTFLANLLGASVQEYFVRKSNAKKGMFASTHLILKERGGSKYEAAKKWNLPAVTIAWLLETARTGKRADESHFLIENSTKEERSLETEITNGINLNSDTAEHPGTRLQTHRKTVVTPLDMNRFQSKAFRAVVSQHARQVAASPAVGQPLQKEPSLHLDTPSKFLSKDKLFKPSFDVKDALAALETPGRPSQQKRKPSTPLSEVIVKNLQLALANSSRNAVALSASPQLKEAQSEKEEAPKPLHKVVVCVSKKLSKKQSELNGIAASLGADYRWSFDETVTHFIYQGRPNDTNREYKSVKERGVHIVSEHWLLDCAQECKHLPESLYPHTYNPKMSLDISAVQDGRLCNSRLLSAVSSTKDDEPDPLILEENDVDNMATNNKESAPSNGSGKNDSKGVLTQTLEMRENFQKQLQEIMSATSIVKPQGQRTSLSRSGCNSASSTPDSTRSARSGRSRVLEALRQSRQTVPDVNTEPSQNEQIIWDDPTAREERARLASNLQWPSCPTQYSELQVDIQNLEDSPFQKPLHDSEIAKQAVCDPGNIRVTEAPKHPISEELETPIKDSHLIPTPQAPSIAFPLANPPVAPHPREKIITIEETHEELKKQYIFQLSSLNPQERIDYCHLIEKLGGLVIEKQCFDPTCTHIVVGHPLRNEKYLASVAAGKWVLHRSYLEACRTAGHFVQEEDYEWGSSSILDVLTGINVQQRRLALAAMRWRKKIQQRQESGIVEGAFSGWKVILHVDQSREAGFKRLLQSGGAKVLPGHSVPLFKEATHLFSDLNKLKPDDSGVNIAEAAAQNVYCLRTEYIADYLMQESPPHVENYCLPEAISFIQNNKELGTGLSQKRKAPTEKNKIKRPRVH
T2 sequence (Q92547 whole entry): as above

For CC(=O)OCOC(=O)CN(CC(=O)OCOC(C)=O)Cc1cc2c(cc1OC(C)=O)Oc1cc(OC(C)=O)c(CN(CC(=O)OCOC(C)=O)CC(=O)OCOC(C)=O)cc1C21OC(=O)c2ccccc21 [Calcein AM, Calcein AM (acetoxymethyl ester)], the “proliferation (MTS)” value (MCF7 cells) was “preferentially inhibited the proliferation”, the “induction of promoter activity on pKL12 and pKL12-E2FAB” value [1] was “could only induce the activity on pKL12, but not on pKL12-E2FAB” and the “HU-induced Chk1 activation” value [2] was “did not block HU-induced Chk1 activation”. For the same molecule, the “oral LD50” value (rats) was 14500 mg/kg, the “interaction between TopBP1 and E2F1” value (TopBP1/E2F1 interaction [3]) was “inhibited” and the “interaction between TopBP1 and Miz1” value (TopBP1/Miz1 interaction) was “inhibited the interaction between TopBP1 and Miz1”. For the same molecule, the “apoptosis (caspase 3/7 activation)” value [4] was “induced apoptosis”, the GI50 (NCI-H23) was less than 1000 nM and the “TopBP1/E2F1 interaction at physiological levels” value (TopBP1/E2F1 interaction [5]) was “inhibited”. The “concentration at which inhibition of colony formation was apparent” value (MDA-MB468 cells [6]) was no less than 0.1 µM, the “apoptosis (caspase 3/7 activity)” value (MDA-MB468 cells [7]; 2.5 μM overnight) was “induced apoptosis” and the “apoptosis (caspase 3/7 activity)” value (MDA-MB468 cells [7]; 0.1 and 0.5 μM, 16 h) was “not”. The “apoptosis (caspase 3/7 activity)” value (MDA-MB468 cells [7]; 2.5 and 5 μM, 16 h) was “induced”, the “effect of Calcein AM on apoptosis (caspase 3/7)” value (MDA-MB468 cells [7]; TopBP1-depleted cells, 2.5 μM overnight) was “mitigated the effect” and the p53 transcriptional activity [8] was “enhanced”. For the same molecule, the “inhibition of p73 transcriptional activity by mutp53(R273H)” value [9] was “blocked” and the “inhibition of cisplatin-induced apoptosis by overexpressed mutp53(R273H)” value (SKOV-3 cells) was “partially rescued”.
